Blank lines part the entries; values can stand above or below the compound they belong to.
Tests used:
[1] = target: cAMP-dependent protein kinase catalytic subunit alpha (Homo sapiens, UniProt P17612); assay: Inhibition of cAPK Calpha in presence of 1 mM ATP
[2] = target: T1, AMP-activated protein kinase, AMPK (Homo sapiens) (UniProt P54646+O43741+P54619+Q9UGJ0+Q9Y478+Q13131+Q9UGI9); assay: Inhibition of AMPK assessed as residual activity at 0.01 uM; format: protein-complex assay
[3] = target: T1, AMP-activated protein kinase, AMPK (Homo sapiens); assay: Inhibition of AMPK assessed as residual activity at 1 uM; format: protein-complex assay
[4] = target: Serine/threonine-protein kinase Sgk1 (Homo sapiens) (UniProt O00141); assay: Inhibition of SGK1 assessed as residual activity at 0.01 uM
[5] = target: Serine/threonine-protein kinase Sgk1 (Homo sapiens) (UniProt O00141); assay: Inhibition of SGK1 assessed as residual activity at 1 uM
[6] = target: Calcium/calmodulin-dependent protein kinase type 1 (Homo sapiens) (UniProt Q14012); assay: Inhibition of CAMK1 assessed as residual activity at 0.01 uM
[7] = target: Calcium/calmodulin-dependent protein kinase type 1 (Homo sapiens) (UniProt Q14012); assay: Inhibition of CAMK1 assessed as residual activity at 1 uM
[8] = target: Serine/threonine-protein kinase pim-2 (Homo sapiens) (UniProt Q9P1W9); assay: Inhibition of PIM2 assessed as residual activity at 0.01 uM
Chain of Serine/threonine-protein kinase pim-2 (Homo sapiens) (Q9P1W9 whole entry, looked up): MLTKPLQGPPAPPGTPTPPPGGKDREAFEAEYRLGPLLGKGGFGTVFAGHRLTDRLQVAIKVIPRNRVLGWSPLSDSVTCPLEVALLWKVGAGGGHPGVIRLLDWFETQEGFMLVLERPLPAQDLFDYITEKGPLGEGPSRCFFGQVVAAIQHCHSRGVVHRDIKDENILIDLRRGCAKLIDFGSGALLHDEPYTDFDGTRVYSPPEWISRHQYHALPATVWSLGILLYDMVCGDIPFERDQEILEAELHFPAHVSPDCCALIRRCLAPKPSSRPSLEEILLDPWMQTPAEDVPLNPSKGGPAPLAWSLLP

[9] = target: Serine/threonine-protein kinase pim-2 (Homo sapiens) (UniProt Q9P1W9); assay: Inhibition of PIM2 assessed as residual activity at 1 uM
[10] = target: Serine/threonine-protein kinase Chk1 (Homo sapiens) (UniProt O14757); assay: Inhibition of CHK1 assessed as residual activity at 0.01 uM
Chain of Serine/threonine-protein kinase Chk1 (Homo sapiens) (O14757 whole entry): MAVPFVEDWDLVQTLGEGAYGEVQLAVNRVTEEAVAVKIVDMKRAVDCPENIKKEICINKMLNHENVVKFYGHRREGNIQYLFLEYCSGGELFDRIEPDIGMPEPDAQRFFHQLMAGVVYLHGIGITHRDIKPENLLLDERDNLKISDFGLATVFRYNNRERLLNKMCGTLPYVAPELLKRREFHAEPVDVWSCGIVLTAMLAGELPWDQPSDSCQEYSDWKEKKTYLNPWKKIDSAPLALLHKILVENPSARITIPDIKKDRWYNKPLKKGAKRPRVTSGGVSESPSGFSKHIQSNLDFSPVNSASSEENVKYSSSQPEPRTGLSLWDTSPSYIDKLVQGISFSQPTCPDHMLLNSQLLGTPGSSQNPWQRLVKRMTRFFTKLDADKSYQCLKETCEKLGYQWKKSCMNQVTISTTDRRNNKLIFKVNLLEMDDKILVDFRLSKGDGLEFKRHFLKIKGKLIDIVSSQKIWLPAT

[11] = target: Serine/threonine-protein kinase Chk1 (Homo sapiens) (UniProt O14757); assay: Inhibition of CHK1 assessed as residual activity at 1 uM
[12] = target: 3-phosphoinositide-dependent protein kinase 1 (Homo sapiens) (UniProt O15530); assay: Inhibition of PDK1 assessed as residual activity at 0.01 uM
[13] = organism: Homo sapiens; assay: Inhibition of PKA assessed as residual activity at 0.01 uM
[14] = organism: Homo sapiens; assay: Inhibition of PKA assessed as residual activity at 1 uM
[15] = target: RAC-beta serine/threonine-protein kinase (Homo sapiens) (UniProt P31751); assay: Inhibition of PKBbeta assessed as residual activity at 0.01 uM
Chain of RAC-beta serine/threonine-protein kinase (Homo sapiens) (P31751 whole entry): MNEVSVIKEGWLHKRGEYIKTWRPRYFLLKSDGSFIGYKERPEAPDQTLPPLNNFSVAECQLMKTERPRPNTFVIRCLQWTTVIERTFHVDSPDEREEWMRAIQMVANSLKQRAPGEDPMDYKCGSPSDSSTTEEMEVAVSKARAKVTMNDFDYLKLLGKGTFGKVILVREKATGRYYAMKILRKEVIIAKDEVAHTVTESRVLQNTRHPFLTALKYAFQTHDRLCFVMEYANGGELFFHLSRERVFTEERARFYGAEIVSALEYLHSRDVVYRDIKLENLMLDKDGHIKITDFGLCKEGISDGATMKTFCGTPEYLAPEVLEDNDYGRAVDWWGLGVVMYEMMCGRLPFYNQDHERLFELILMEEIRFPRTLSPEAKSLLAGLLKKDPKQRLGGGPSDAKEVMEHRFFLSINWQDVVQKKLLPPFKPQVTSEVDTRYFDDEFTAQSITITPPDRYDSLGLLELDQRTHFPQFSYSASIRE

[16] = target: RAC-beta serine/threonine-protein kinase (Homo sapiens) (UniProt P31751); assay: Inhibition of PKBbeta assessed as residual activity at 1 uM
[17] = target: Serine/threonine-protein kinase N2 (Homo sapiens) (UniProt Q16513); assay: Inhibition of PRK2 assessed as residual activity at 0.01 uM
[18] = target: Serine/threonine-protein kinase N2 (Homo sapiens) (UniProt Q16513); assay: Inhibition of PRK2 assessed as residual activity at 1 uM
[19] = target: Serine/threonine-protein kinase pim-1 (Homo sapiens) (UniProt P11309); assay: Inhibition of PIM1 assessed as residual activity at 0.01 uM
[20] = target: Serine/threonine-protein kinase pim-1 (Homo sapiens) (UniProt P11309); assay: Inhibition of PIM1 assessed as residual activity at 1 uM
[21] = target: Ribosomal protein S6 kinase beta-1 (Homo sapiens) (UniProt P23443); assay: Inhibition of S6K1 assessed as residual activity at 0.01 uM
[22] = target: Ribosomal protein S6 kinase beta-1 (Homo sapiens) (UniProt P23443); assay: Inhibition of S6K1 assessed as residual activity at 1 uM
[23] = target: Serine/threonine-protein kinase PAK 5 (Homo sapiens) (UniProt Q9P286); assay: Inhibition of PAK5 assessed as residual activity at 0.01 uM
Chain of Serine/threonine-protein kinase PAK 5 (Homo sapiens) (Q9P286 whole entry, looked up): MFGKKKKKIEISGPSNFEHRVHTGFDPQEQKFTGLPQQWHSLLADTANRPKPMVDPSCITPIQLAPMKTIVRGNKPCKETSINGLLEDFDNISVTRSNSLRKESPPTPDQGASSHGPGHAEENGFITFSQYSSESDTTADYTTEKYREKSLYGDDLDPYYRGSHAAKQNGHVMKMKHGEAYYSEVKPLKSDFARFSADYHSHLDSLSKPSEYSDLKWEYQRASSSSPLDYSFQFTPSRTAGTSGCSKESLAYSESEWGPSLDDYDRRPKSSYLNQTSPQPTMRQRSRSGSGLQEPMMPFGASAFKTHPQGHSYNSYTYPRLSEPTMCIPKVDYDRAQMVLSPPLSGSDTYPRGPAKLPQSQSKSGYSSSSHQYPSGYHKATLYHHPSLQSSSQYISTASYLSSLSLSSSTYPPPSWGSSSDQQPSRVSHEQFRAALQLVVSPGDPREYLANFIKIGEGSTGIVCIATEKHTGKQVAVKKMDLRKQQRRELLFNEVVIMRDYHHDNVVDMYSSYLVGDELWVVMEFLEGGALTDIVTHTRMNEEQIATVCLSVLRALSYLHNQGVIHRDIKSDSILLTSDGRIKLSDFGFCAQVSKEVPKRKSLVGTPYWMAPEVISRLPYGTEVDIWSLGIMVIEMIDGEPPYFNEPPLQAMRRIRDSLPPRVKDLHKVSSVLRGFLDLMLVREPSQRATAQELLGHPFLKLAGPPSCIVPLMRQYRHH

[24] = target: Serine/threonine-protein kinase PAK 5 (Homo sapiens) (UniProt Q9P286); assay: Inhibition of PAK5 assessed as residual activity at 1 uM
[25] = target: Maternal embryonic leucine zipper kinase (Homo sapiens) (UniProt Q14680); assay: Inhibition of MELK assessed as residual activity at 0.01 uM
[26] = target: Maternal embryonic leucine zipper kinase (Homo sapiens) (UniProt Q14680); assay: Inhibition of MELK assessed as residual activity at 1 uM
[27] = target: 3-phosphoinositide-dependent protein kinase 1 (Homo sapiens) (UniProt O15530); assay: Inhibition of PDK1 assessed as residual activity at 1 uM
[28] = target: Ribosomal protein S6 kinase alpha-3 (Homo sapiens) (UniProt P51812); assay: Inhibition of RSK2 assessed as residual activity at 0.01 uM
[29] = target: Ribosomal protein S6 kinase alpha-3 (Homo sapiens) (UniProt P51812); assay: Inhibition of RSK2 assessed as residual activity at 1 uM
[30] = target: Protein kinase C alpha type (Homo sapiens) (UniProt P17252); assay: Inhibition of PKCalpha assessed as residual activity at 0.01 uM
[31] = target: Protein kinase C alpha type (Homo sapiens) (UniProt P17252); assay: Inhibition of PKCalpha assessed as residual activity at 1 uM
[32] = target: RAC-alpha serine/threonine-protein kinase (Homo sapiens) (UniProt P31749); assay: Inhibition of PKBalpha assessed as residual activity at 0.01 uM
Chain of RAC-alpha serine/threonine-protein kinase (Homo sapiens) (P31749 whole entry): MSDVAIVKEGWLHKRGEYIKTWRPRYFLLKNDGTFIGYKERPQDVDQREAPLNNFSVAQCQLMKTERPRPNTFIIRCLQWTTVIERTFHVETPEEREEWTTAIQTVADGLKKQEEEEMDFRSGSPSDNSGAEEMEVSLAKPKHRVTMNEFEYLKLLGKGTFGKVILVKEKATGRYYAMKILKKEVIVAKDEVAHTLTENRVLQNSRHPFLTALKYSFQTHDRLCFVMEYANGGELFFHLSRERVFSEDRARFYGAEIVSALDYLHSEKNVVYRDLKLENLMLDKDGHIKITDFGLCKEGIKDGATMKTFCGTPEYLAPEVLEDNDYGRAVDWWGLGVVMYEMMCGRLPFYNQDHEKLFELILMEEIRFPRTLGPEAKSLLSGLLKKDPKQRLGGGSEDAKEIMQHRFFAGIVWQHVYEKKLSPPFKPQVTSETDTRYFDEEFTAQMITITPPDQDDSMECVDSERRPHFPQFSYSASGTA

[33] = target: RAC-alpha serine/threonine-protein kinase (Homo sapiens) (UniProt P31749); assay: Inhibition of PKBalpha assessed as residual activity at 1 uM
[34] = target: Protein kinase C zeta type (Homo sapiens) (UniProt Q05513); assay: Inhibition of PKCzeta assessed as residual activity at 0.01 uM
[35] = target: Protein kinase C zeta type (Homo sapiens) (UniProt Q05513); assay: Inhibition of PKCzeta assessed as residual activity at 1 uM
[36] = target: Dual specificity tyrosine-phosphorylation-regulated kinase 3 (Homo sapiens) (UniProt O43781); assay: Inhibition of DYRK3 assessed as residual activity at 0.01 uM
[37] = target: Dual specificity tyrosine-phosphorylation-regulated kinase 3 (Homo sapiens) (UniProt O43781); assay: Inhibition of DYRK3 assessed as residual activity at 1 uM
[38] = target: Tyrosine-protein kinase Lck (Homo sapiens) (UniProt P06239); assay: Inhibition of Lck assessed as residual activity at 0.01 uM
Chain of Tyrosine-protein kinase Lck (Homo sapiens) (P06239 2-509 limits assumed): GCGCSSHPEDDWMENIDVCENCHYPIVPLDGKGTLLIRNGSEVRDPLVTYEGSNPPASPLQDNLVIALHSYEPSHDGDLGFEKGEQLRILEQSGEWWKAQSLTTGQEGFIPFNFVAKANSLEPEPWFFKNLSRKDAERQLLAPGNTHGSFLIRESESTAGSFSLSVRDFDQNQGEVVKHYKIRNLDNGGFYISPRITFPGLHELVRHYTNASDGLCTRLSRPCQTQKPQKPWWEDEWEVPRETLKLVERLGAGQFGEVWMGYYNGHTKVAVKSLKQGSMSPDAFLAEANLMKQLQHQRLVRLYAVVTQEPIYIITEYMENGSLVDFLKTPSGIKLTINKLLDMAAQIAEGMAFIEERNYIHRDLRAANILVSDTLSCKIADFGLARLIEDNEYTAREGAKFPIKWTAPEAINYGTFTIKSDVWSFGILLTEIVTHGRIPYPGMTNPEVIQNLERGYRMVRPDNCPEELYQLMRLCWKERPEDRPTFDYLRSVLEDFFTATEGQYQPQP

[39] = target: Tyrosine-protein kinase Lck (Homo sapiens) (UniProt P06239); assay: Inhibition of Lck assessed as residual activity at 1 uM
[40] = target: Aurora kinase B (Homo sapiens) (UniProt Q96GD4); assay: Inhibition of AURORA B assessed as residual activity at 0.01 uM
Chain of Aurora kinase B (Homo sapiens) (Q96GD4 whole entry): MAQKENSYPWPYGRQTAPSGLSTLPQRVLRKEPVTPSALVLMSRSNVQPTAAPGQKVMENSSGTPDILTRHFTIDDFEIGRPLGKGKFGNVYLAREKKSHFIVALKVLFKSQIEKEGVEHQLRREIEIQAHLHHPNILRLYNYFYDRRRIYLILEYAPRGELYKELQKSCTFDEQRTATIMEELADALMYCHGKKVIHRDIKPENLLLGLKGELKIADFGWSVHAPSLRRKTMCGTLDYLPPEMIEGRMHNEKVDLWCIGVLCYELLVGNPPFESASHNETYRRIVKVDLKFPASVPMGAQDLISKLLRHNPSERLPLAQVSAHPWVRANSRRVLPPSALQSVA

[41] = target: Aurora kinase B (Homo sapiens) (UniProt Q96GD4); assay: Inhibition of AURORA B assessed as residual activity at 1 uM
[42] = target: Serine/threonine-protein kinase D1 (Homo sapiens) (UniProt Q15139); assay: Inhibition of PKD1 assessed as residual activity at 0.01 uM
[43] = target: Serine/threonine-protein kinase D1 (Homo sapiens) (UniProt Q15139); assay: Inhibition of PKD1 assessed as residual activity at 1 uM
[44] = target: Tyrosine-protein kinase CSK (Homo sapiens) (UniProt P41240); assay: Inhibition of CSK assessed as residual activity at 0.01 uM
Chain of Tyrosine-protein kinase CSK (Homo sapiens) (P41240 2-450 limits assumed): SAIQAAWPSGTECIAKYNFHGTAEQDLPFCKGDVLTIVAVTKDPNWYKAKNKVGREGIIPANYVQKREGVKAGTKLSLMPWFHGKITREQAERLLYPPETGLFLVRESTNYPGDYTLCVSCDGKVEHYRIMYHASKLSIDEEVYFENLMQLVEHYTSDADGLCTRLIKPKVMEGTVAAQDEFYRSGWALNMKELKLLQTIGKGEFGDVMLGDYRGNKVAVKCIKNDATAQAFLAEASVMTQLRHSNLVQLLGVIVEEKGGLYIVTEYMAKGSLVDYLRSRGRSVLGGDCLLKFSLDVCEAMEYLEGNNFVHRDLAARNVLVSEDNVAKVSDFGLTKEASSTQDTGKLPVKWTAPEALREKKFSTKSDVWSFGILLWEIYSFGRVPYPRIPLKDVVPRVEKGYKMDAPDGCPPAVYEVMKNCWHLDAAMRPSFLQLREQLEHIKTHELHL

[45] = target: Tyrosine-protein kinase CSK (Homo sapiens) (UniProt P41240); assay: Inhibition of CSK assessed as residual activity at 1 uM
[46] = target: Mitogen-activated protein kinase 3 (Homo sapiens) (UniProt P27361); assay: Inhibition of ERK1 assessed as residual activity at 0.01 uM
Chain of Mitogen-activated protein kinase 3 (Homo sapiens) (P27361 whole entry): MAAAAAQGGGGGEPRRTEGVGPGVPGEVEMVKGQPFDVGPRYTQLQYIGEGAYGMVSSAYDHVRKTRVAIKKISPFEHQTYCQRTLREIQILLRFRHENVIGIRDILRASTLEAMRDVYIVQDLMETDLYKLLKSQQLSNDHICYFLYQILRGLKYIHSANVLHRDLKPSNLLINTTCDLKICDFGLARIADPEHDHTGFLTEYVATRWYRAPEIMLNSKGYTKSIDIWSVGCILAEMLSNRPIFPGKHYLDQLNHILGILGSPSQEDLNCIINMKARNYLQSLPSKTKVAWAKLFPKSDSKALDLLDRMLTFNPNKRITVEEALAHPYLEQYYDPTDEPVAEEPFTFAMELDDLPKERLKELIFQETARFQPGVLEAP

[47] = target: Mitogen-activated protein kinase 3 (Homo sapiens) (UniProt P27361); assay: Inhibition of ERK1 assessed as residual activity at 1 uM
[48] = target: Proto-oncogene tyrosine-protein kinase Src (Homo sapiens) (UniProt P12931); assay: Inhibition of Src assessed as residual activity at 0.01 uM
[49] = target: Proto-oncogene tyrosine-protein kinase Src (Homo sapiens) (UniProt P12931); assay: Inhibition of Src assessed as residual activity at 1 uM
[50] = target: Glycogen synthase kinase-3 beta (Homo sapiens) (UniProt P49841); assay: Inhibition of GSK3-beta assessed as residual activity at 0.01 uM
[51] = target: Glycogen synthase kinase-3 beta (Homo sapiens) (UniProt P49841); assay: Inhibition of GSK3-beta assessed as residual activity at 1 uM
[52] = target: T2, Casein kinase II (Homo sapiens) (UniProt P67870+P68400+P19784); assay: Inhibition of CK2 assessed as residual activity at 0.1 uM; format: protein-complex assay
[53] = target: T2, Casein kinase II (Homo sapiens); assay: Inhibition of CK2 assessed as residual activity at 1 uM; format: protein-complex assay
[54] = target: MAP kinase-activated protein kinase 3 (Homo sapiens) (UniProt Q16644); assay: Inhibition of MAPKAP K3 assessed as residual activity at 0.01 uM
[55] = target: MAP kinase-activated protein kinase 3 (Homo sapiens) (UniProt Q16644); assay: Inhibition of MAPKAP K3 assessed as residual activity at 1 uM
[56] = target: MAP kinase-activated protein kinase 5 (Homo sapiens) (UniProt Q8IW41); assay: Inhibition of PRAK assessed as residual activity at 0.01 uM
[57] = target: MAP kinase-activated protein kinase 5 (Homo sapiens) (UniProt Q8IW41); assay: Inhibition of PRAK assessed as residual activity at 1 uM
[58] = target: Ribosomal protein S6 kinase alpha-1 (Homo sapiens) (UniProt Q15418); assay: Inhibition of RSK1 assessed as residual activity at 0.01 uM
[59] = target: Ribosomal protein S6 kinase alpha-1 (Homo sapiens) (UniProt Q15418); assay: Inhibition of RSK1 assessed as residual activity at 1 uM
[60] = target: Mitogen-activated protein kinase 10 (Homo sapiens) (UniProt P53779); assay: Inhibition of JNK3 assessed as residual activity at 0.01 uM
Chain of Mitogen-activated protein kinase 10 (Homo sapiens) (P53779 whole entry): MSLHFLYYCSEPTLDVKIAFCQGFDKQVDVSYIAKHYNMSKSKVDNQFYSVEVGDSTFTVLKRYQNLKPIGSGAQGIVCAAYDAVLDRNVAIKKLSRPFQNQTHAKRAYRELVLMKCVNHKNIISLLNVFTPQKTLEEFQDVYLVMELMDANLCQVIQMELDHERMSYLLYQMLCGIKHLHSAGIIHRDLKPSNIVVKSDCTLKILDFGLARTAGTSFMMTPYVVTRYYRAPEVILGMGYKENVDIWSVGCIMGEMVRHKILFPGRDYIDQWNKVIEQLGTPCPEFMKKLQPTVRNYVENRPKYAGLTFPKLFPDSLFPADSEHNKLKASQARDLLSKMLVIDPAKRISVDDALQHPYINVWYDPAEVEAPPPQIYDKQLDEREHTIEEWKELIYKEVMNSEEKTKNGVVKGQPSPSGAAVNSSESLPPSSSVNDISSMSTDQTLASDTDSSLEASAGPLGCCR

[61] = target: Mitogen-activated protein kinase 10 (Homo sapiens) (UniProt P53779); assay: Inhibition of JNK3 assessed as residual activity at 1 uM
[62] = target: Serine/threonine-protein kinase Nek6 (Homo sapiens) (UniProt Q9HC98); assay: Inhibition of NEK6 assessed as residual activity at 0.01 uM
Chain of Serine/threonine-protein kinase Nek6 (Homo sapiens) (Q9HC98 whole entry): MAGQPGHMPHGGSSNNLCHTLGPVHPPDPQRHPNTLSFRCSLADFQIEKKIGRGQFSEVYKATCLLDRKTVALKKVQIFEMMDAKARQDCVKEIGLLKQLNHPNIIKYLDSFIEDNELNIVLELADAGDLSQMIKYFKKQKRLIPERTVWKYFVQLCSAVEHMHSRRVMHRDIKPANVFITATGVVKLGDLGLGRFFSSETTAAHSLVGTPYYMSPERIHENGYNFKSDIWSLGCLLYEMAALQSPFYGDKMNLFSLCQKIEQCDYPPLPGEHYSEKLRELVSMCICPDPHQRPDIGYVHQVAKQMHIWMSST

[63] = target: Serine/threonine-protein kinase Nek6 (Homo sapiens) (UniProt Q9HC98); assay: Inhibition of NEK6 assessed as residual activity at 1 uM; format: functional
[64] = organism: Homo sapiens; assay: Inhibition of CDK2/cyclin A assessed as residual activity at 0.01 uM
[65] = organism: Homo sapiens; assay: Inhibition of CDK2/cyclin A assessed as residual activity at 1 uM

IC50 [1]: > 1000 µM
Compound: COC(=O)[C@H]1C[C@H](O)[C@@H](n2cnc3c(N)ncnc32)C1

IC50 [1]: 168 µM
Compound: COC(=O)[C@@H]1C[C@@H](O)[C@H](n2cnc3c(N)ncnc32)C1

Activity [2]: 70% | Activity [3]: 12% | Activity [4]: 40% | Activity [5]: 19% | Activity [6]: 62% | Activity [7]: 19% | Activity [8]: 103% | Activity [9]: 20% | Activity [10]: 84% | Activity [11]: 27% | Activity [12]: 76% | Activity [13]: 7% | Activity [14]: 0% | Activity [15]: 74% | Activity [16]: 2% | Activity [17]: 59% | Activity [18]: 3% | Activity [19]: 92% | Activity [20]: 6% | Activity [21]: 81% | Activity [22]: 7% | Activity [23]: 71% | Activity [24]: 10% | Activity [25]: 86% | Activity [26]: 10% | Activity [27]: 28% | Activity [28]: 91% | Activity [29]: 28% | Activity [30]: 96% | Activity [31]: 30% | Activity [32]: 25% | Activity [33]: 32% | Activity [34]: 83% | Activity [35]: 33% | Activity [36]: 81% | Activity [37]: 51% | Activity [38]: 86% | Activity [39]: 63% | Activity [40]: 76% | Activity [41]: 72% | Activity [42]: 81% | Activity [43]: 73% | Activity [44]: 97% | Activity [45]: 77% | Activity [46]: 82% | Activity [47]: 84% | Activity [48]: 85% | Activity [49]: 84% | Activity [50]: 82% | Activity [51]: 88% | Activity [52]: 86% | Activity [53]: 88% | Activity [54]: 97% | Activity [55]: 91% | Activity [56]: 88% | Activity [57]: 96% | Activity [58]: 98% | Activity [59]: 98% | Activity [60]: 103% | Activity [61]: 104% | Activity [62]: 101% | Activity [63]: 111% | Activity [64]: 103% | Activity [65]: 114%
Compound: N=C(N)NCCC[C@H](NC(=O)[C@H](CCCNC(=N)N)NC(=O)[C@H](CCCNC(=N)N)NC(=O)[C@H](CCCNC(=N)N)NC(=O)[C@H](CCCNC(=N)N)NC(=O)[C@H](CCCNC(=N)N)NC(=O)CCCCCNC(=O)[C@@H]1C[C@@H](O)[C@H](n2cnc3c(N)ncnc32)C1)C(N)=O

— ChEMBL document CHEMBL1149703 (Bioorg Med Chem Lett, 2007)
